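Values below derive from 48-hour exposures of cells grown in 96-well plates, with endpoints linearly interpolated between the two concentrations bracketing the appropriate inhibition level. TGI: concentration producing complete growth inhibition.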 Where a SMILES comes first, the peptide text is derived from it. The star is where a group is joined. Cbz = O=C(OCc1ccccc1)*
test system: OVCAR-5 ovarian; test: NCI anticancer screen, dose series, 48 h

Row | SMILES | TGI
1 | COc1ccc(C2(CC(C)C)CCN(S(=O)(=O)c3ccc(C)cc3)C2)cc1OC (centres undefined) | > 100 µM
2 | O=c1cc(NNc2cccc(Cl)c2)[nH]c(=O)[nH]1 | > 100 µM
3 | CCOC(=O)c1sc2nc(SC)nc(Nc3ccc4c(c3)OCCO4)c2c1N | 54.7 µM
4 | CC1(C)OP(=O)(O)C=C1Sc1ccc([N+](=O)[O-])cc1[N+](=O)[O-] | > 100 µM

test system: OVCAR-8 ovarian; test: NCI anticancer screen, dose series, 48 h

Row | SMILES | TGI
5 | COC(=O)C1=C(OC)[C@H]2C#C/C=C\C#C[C@@H]3Nc4c(cc(O)c5c4C(=O)c4ccccc4C5=O)[C@]24O[C@@]34[C@H]1C | < 0.01 µM
6 | CCOC(=O)CCC(NC(=O)OCc1ccccc1)C(=O)NC(CCC(=O)OCC)C(=O)OCC (centres undefined) (Cbz-Glu(OEt)-Glu(OEt)-OEt; configuration not given here) | > 100 µM
7 | CCOC(=O)C(NC(=O)c1ccccc1)(N1CCN(c2cc3c(cc2F)c(=O)c(C(=O)O)cn3C2CC2)CC1)C(F)(F)F (centres undefined) | > 100 µM
8 | CCOC(=O)c1sc2nc(SC)nc(Nc3ccc4c(c3)OCCO4)c2c1N | 23.1 µM
9 | CC1(C)OP(=O)(O)C=C1Sc1ccc([N+](=O)[O-])cc1[N+](=O)[O-] | > 100 µM

test system: PC-3 prostate; test: NCI anticancer screen, dose series, 48 h

Row | SMILES | TGI
10 | c1ccc2c(c1)Nc1cccc3c1c-2nc1ccccc13 | 2.43 µM
11 | COC(=O)C1=C(OC)[C@H]2C#C/C=C\C#C[C@@H]3Nc4c(cc(O)c5c4C(=O)c4ccccc4C5=O)[C@]24O[C@@]34[C@H]1C | 0.138 µM
12 | CCOC(=O)CCC(NC(=O)OCc1ccccc1)C(=O)NC(CCC(=O)OCC)C(=O)OCC (centres undefined) (Cbz-Glu(OEt)-Glu(OEt)-OEt; configuration not given here) | > 100 µM
13 | CCOC(=O)C(NC(=O)c1ccccc1)(N1CCN(c2cc3c(cc2F)c(=O)c(C(=O)O)cn3C2CC2)CC1)C(F)(F)F (centres undefined) | 60.2 µM
14 | COc1ccc(C2(CC(C)C)CCN(S(=O)(=O)c3ccc(C)cc3)C2)cc1OC (centres undefined) | > 100 µM
15 | O=c1cc(NNc2cccc(Cl)c2)[nH]c(=O)[nH]1 | > 100 µM
16 | CCOC(=O)c1sc2nc(SC)nc(Nc3ccc4c(c3)OCCO4)c2c1N | 29.7 µM
17 | CC1(C)OP(=O)(O)C=C1Sc1ccc([N+](=O)[O-])cc1[N+](=O)[O-] | > 100 µM

test system: RPMI-8226 leukemia; test: NCI anticancer screen, dose series, 48 h

Row | SMILES | TGI
18 | c1ccc2c(c1)Nc1cccc3c1c-2nc1ccccc13 | 3.48 µM
19 | COC(=O)C1=C(OC)[C@H]2C#C/C=C\C#C[C@@H]3Nc4c(cc(O)c5c4C(=O)c4ccccc4C5=O)[C@]24O[C@@]34[C@H]1C | 0.0188 µM
20 | CCOC(=O)CCC(NC(=O)OCc1ccccc1)C(=O)NC(CCC(=O)OCC)C(=O)OCC (centres undefined) (Cbz-Glu(OEt)-Glu(OEt)-OEt; configuration not given here) | > 100 µM
21 | CCOC(=O)C(NC(=O)c1ccccc1)(N1CCN(c2cc3c(cc2F)c(=O)c(C(=O)O)cn3C2CC2)CC1)C(F)(F)F (centres undefined) | 54.1 µM
22 | O=c1cc(NNc2cccc(Cl)c2)[nH]c(=O)[nH]1 | 56.1 µM
23 | CCOC(=O)c1sc2nc(SC)nc(Nc3ccc4c(c3)OCCO4)c2c1N | 77.1 µM

test system: RXF 393 renal; test: NCI anticancer screen, dose series, 48 h

Row | SMILES | TGI
24 | CCOC(=O)CCC(NC(=O)OCc1ccccc1)C(=O)NC(CCC(=O)OCC)C(=O)OCC (centres undefined) (Cbz-Glu(OEt)-Glu(OEt)-OEt; configuration not given here) | > 100 µM
25 | CCOC(=O)C(NC(=O)c1ccccc1)(N1CCN(c2cc3c(cc2F)c(=O)c(C(=O)O)cn3C2CC2)CC1)C(F)(F)F (centres undefined) | 36.5 µM
26 | COc1ccc(C2(CC(C)C)CCN(S(=O)(=O)c3ccc(C)cc3)C2)cc1OC (centres undefined) | > 100 µM
27 | O=c1cc(NNc2cccc(Cl)c2)[nH]c(=O)[nH]1 | > 100 µM
28 | CCOC(=O)c1sc2nc(SC)nc(Nc3ccc4c(c3)OCCO4)c2c1N | 16.9 µM

test system: SF-268 CNS; test: NCI anticancer screen, dose series, 48 h

Row | SMILES | TGI
29 | COC(=O)C1=C(OC)[C@H]2C#C/C=C\C#C[C@@H]3Nc4c(cc(O)c5c4C(=O)c4ccccc4C5=O)[C@]24O[C@@]34[C@H]1C | < 0.0341 µM
30 | CCOC(=O)CCC(NC(=O)OCc1ccccc1)C(=O)NC(CCC(=O)OCC)C(=O)OCC (centres undefined) (Cbz-Glu(OEt)-Glu(OEt)-OEt; configuration not given here) | > 100 µM
31 | CCOC(=O)C(NC(=O)c1ccccc1)(N1CCN(c2cc3c(cc2F)c(=O)c(C(=O)O)cn3C2CC2)CC1)C(F)(F)F (centres undefined) | 41.8 µM
32 | COc1ccc(C2(CC(C)C)CCN(S(=O)(=O)c3ccc(C)cc3)C2)cc1OC (centres undefined) | 95.4 µM
33 | O=c1cc(NNc2cccc(Cl)c2)[nH]c(=O)[nH]1 | > 100 µM
34 | CCOC(=O)c1sc2nc(SC)nc(Nc3ccc4c(c3)OCCO4)c2c1N | 20.4 µM
35 | CC1(C)OP(=O)(O)C=C1Sc1ccc([N+](=O)[O-])cc1[N+](=O)[O-] | > 100 µM

test system: SF-295 CNS; test: NCI anticancer screen, dose series, 48 h

Row | SMILES | TGI
36 | COC(=O)C1=C(OC)[C@H]2C#C/C=C\C#C[C@@H]3Nc4c(cc(O)c5c4C(=O)c4ccccc4C5=O)[C@]24O[C@@]34[C@H]1C | < 0.01 µM
37 | CCOC(=O)CCC(NC(=O)OCc1ccccc1)C(=O)NC(CCC(=O)OCC)C(=O)OCC (centres undefined) (Cbz-Glu(OEt)-Glu(OEt)-OEt; configuration not given here) | > 100 µM
38 | CCOC(=O)C(NC(=O)c1ccccc1)(N1CCN(c2cc3c(cc2F)c(=O)c(C(=O)O)cn3C2CC2)CC1)C(F)(F)F (centres undefined) | 87.9 µM
39 | COc1ccc(C2(CC(C)C)CCN(S(=O)(=O)c3ccc(C)cc3)C2)cc1OC (centres undefined) | > 100 µM
40 | CCOC(=O)c1sc2nc(SC)nc(Nc3ccc4c(c3)OCCO4)c2c1N | 58.1 µM
41 | CC1(C)OP(=O)(O)C=C1Sc1ccc([N+](=O)[O-])cc1[N+](=O)[O-] | > 100 µM

test system: SF-539 CNS; test: NCI anticancer screen, dose series, 48 h

Row | SMILES | TGI
42 | COC(=O)C1=C(OC)[C@H]2C#C/C=C\C#C[C@@H]3Nc4c(cc(O)c5c4C(=O)c4ccccc4C5=O)[C@]24O[C@@]34[C@H]1C | < 0.01 µM
43 | CCOC(=O)CCC(NC(=O)OCc1ccccc1)C(=O)NC(CCC(=O)OCC)C(=O)OCC (centres undefined) (Cbz-Glu(OEt)-Glu(OEt)-OEt; configuration not given here) | > 100 µM
44 | CCOC(=O)C(NC(=O)c1ccccc1)(N1CCN(c2cc3c(cc2F)c(=O)c(C(=O)O)cn3C2CC2)CC1)C(F)(F)F (centres undefined) | 30.9 µM
45 | COc1ccc(C2(CC(C)C)CCN(S(=O)(=O)c3ccc(C)cc3)C2)cc1OC (centres undefined) | > 100 µM
46 | O=c1cc(NNc2cccc(Cl)c2)[nH]c(=O)[nH]1 | > 100 µM
47 | CCOC(=O)c1sc2nc(SC)nc(Nc3ccc4c(c3)OCCO4)c2c1N | 18.2 µM
48 | CC1(C)OP(=O)(O)C=C1Sc1ccc([N+](=O)[O-])cc1[N+](=O)[O-] | > 100 µM

test system: SK-MEL-2 melanoma; test: NCI anticancer screen, dose series, 48 h

Row | SMILES | TGI
49 | COC(=O)C1=C(OC)[C@H]2C#C/C=C\C#C[C@@H]3Nc4c(cc(O)c5c4C(=O)c4ccccc4C5=O)[C@]24O[C@@]34[C@H]1C | 206 nM
